Measured values from the supplement of paper PMC10307832.

How the values were obtained:
Assay in all cases: relative viability (nuclei count vs DMSO), 5 days (fraction); higher = more cells survive
NCI-H2405 = tested on: NCI-H2405
Outline: (§1)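 For relative viability, nuclei counts in treated wells were divided by those in vehicle wells. Lung cancer cell lines had been pin-tool dosed in 1536-well plates the day after seeding and cultured for 5 days, then fixed and stained in one step (final 0.05% Triton X-100, 1% formaldehyde, 1 ug/ml Hoechst) and imaged at 4×. Doses were one drug alone or a fixed anchor-drug dose plus five library-drug doses (not always all listed) in √10 steps, and values are duplicate-plate medians.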

LXF-289 = tested on: LXF-289
Outline: as §1

NCI-H1650 = tested on: NCI-H1650
Outline: as §1

CAL-12T = tested on: CAL-12T
Outline: as §1

SK-LU-1 = tested on: SK-LU-1
Outline: as §1

NCI-H647 = tested on: NCI-H647
Outline: as §1

NCI-H322M = tested on: NCI-H322M
Outline: as §1

NCI-H2228 = tested on: NCI-H2228
Outline: as §1

NCI-H1437 = tested on: NCI-H1437
Outline: as §1

NCI-H1944 = tested on: NCI-H1944
Outline: as §1

NCI-H1792 = tested on: NCI-H1792
Outline: as §1

CCN(CC)CCCCNc1ncc2cc(-c3cc(OC)cc(OC)c3)c(NC(=O)NC(C)(C)C)nc2n1 + CCNC(=O)c1noc(-c2cc(C(C)C)c(O)cc2O)c1-c1ccc(CN2CCOCC2)cc1 [Luminespib] (partner 0.01 µM)
relative viability (NCI-H2405; first compound 0.01 µM): 0.649 | relative viability (NCI-H2405; first compound 0.03162 µM): 0.644 | relative viability (NCI-H2405; first compound 0.1 µM): 0.76 | relative viability (NCI-H2405; first compound 0.3162 µM): 0.654 | relative viability (NCI-H2405; first compound 1 µM): 0.684 | relative viability (LXF-289; first compound 0.01 µM): 0.727 | relative viability (LXF-289; first compound 0.03162 µM): 0.668 | relative viability (LXF-289; first compound 0.1 µM): 0.699 | relative viability (LXF-289; first compound 0.3162 µM): 0.801 | relative viability (LXF-289; first compound 1 µM): 0.577 | relative viability (NCI-H1650; first compound 0.01 µM): 0.227 | relative viability (NCI-H1650; first compound 0.03162 µM): 0.214 | relative viability (NCI-H1650; first compound 0.1 µM): 0.204 | relative viability (NCI-H1650; first compound 0.3162 µM): 0.206 | relative viability (NCI-H1650; first compound 1 µM): 0.203 | relative viability (CAL-12T; first compound 0.01 µM): 0.63 | relative viability (CAL-12T; first compound 0.03162 µM): 0.338 | relative viability (CAL-12T; first compound 0.1 µM): 0.363 | relative viability (CAL-12T; first compound 0.3162 µM): 0.445 | relative viability (CAL-12T; first compound 1 µM): 0.347 | relative viability (SK-LU-1; first compound 0.01 µM): 0.199 | relative viability (SK-LU-1; first compound 0.03162 µM): 0.197 | relative viability (SK-LU-1; first compound 0.1 µM): 0.197 | relative viability (SK-LU-1; first compound 0.3162 µM): 0.236 | relative viability (SK-LU-1; first compound 1 µM): 0.168 | relative viability (NCI-H647; first compound 0.01 µM): 0.163 | relative viability (NCI-H647; first compound 0.03162 µM): 0.205 | relative viability (NCI-H647; first compound 0.1 µM): 0.222 | relative viability (NCI-H647; first compound 0.3162 µM): 0.205 | relative viability (NCI-H647; first compound 1 µM): 0.148 | relative viability (NCI-H322M; first compound 0.01 µM): 0.884 | relative viability (NCI-H322M; first compound 0.03162 µM): 0.854 | relative viability (NCI-H322M; first compound 0.1 µM): 0.859 | relative viability (NCI-H322M; first compound 0.3162 µM): 0.988 | relative viability (NCI-H322M; first compound 1 µM): 0.799 | relative viability (NCI-H2228; first compound 0.01 µM): 0.131 | relative viability (NCI-H2228; first compound 0.03162 µM): 0.109 | relative viability (NCI-H2228; first compound 0.1 µM): 0.173 | relative viability (NCI-H2228; first compound 0.3162 µM): 0.247 | relative viability (NCI-H2228; first compound 1 µM): 0.142 | relative viability (NCI-H1437; first compound 0.01 µM): 1.18 | relative viability (NCI-H1437; first compound 0.03162 µM): 1.1 | relative viability (NCI-H1437; first compound 0.1 µM): 1.26 | relative viability (NCI-H1437; first compound 0.3162 µM): 1.1 | relative viability (NCI-H1437; first compound 1 µM): 1.05 | relative viability (NCI-H1944; first compound 0.01 µM): 0.705 | relative viability (NCI-H1944; first compound 0.03162 µM): 0.747 | relative viability (NCI-H1944; first compound 0.1 µM): 0.762 | relative viability (NCI-H1944; first compound 0.3162 µM): 0.822 | relative viability (NCI-H1944; first compound 1 µM): 0.603 | relative viability (NCI-H1792; first compound 0.01 µM): 0.38 | relative viability (NCI-H1792; first compound 0.03162 µM): 0.388 | relative viability (NCI-H1792; first compound 0.1 µM): 0.536 | relative viability (NCI-H1792; first compound 0.3162 µM): 0.37 | relative viability (NCI-H1792; first compound 1 µM): 0.282
